biological target: T1, Active human recombinant ROCK II (N-terminal His6-tagged recombinant human ROCK-II residues 11-552) (Homo sapiens, UniProt O75116); experiment: Determination of Rho-kinase activity (Rho-kinase inhibition, Caliper peptide phosphorylation assay); type: biochemical; settings: Fluorescein-AKRRRLSSLRA-COOH peptide substrate and ATP, 60 min incubation at 32° C., tested as the form (salt or free base) obtained in the examples, read-out: pIC50 (negative decadal logarithm of the IC50), Rho-kinase inhibition (converted)
T1 construct: recombinant human ROCK-II residues 11-552; His6 (N); purchased Upstate Ltd., Dundee, UK
Experimental: Determination of Rho-Kinase Activity
To measure Rho-kinase inhibition, IC50 values were determined according to the following protocol:
Active human recombinant ROCK II (N-terminal His6-tagged recombinant human ROCK-II residues 11-552) was purchased from Upstate Ltd., Dundee, UK. The peptide substrate, Fluorescein-AKRRRLSSLRA-COOH, was obtained from JPT Peptide Technologies, Berlin, Germany. Adenosine-5′-triphosphate (ATP), bovine serum albumine (BSA), dimethylsulphoxide (DMSO), 4-(2-Hydroxyethyl)piperazine-1-ethanesulfonic acid (Hepes), Brij-35 and dithiothreitol (DTT) were purchased from Sigma-Aldrich, Munich, Germany. Tris(hydroxymethyl)-aminomethane (Tris), magnesium chloride, NaOH, 1M HCl and EDTA were obtained from Merck Biosciences, Darmstadt, Germany. “Complete” protease inhibitor was from Roche Diagnostics, Mannheim, Germany.
Test compounds were diluted to the appropriate concentrations in buffer 1 (25 mM Tris-HCl, pH 7.4, 5 mM MgCl2, 2 mM DTT, 0.02% (w/v) BSA and 3% DMSO). The ROCK II enzyme was diluted to a concentration of 100 ng/ml in buffer 2 (25 mM Tris-HCl, pH 7.4, 5 mM MgCl2, 2 mM DTT and 0.02% (w/v) BSA). The peptide substrate and ATP were diluted to concentrations of 3 μM and 120 μM, respectively, in the buffer 2. Two μl of the compound solution were mixed with 2 μl of the diluted enzyme in a 384-well small volume microtiter plate (Greiner, Bio-One, Frickenhausen, Germany), and the kinase reaction was initiated by addition of 2 μl of the solution containing peptide substrate and ATP. After 60 min incubation at 32° C., the reaction was stopped by addition of 20 μl of a solution containing 100 mM Hepes-NaOH, pH 7.4, 0.015% (v/v) Brij-35, 45 mM EDTA and 0.227% chip coating reagent 1 (Caliper Lifescience Inc, Hopkinton, Mass.). Phosphorylation of the substrate peptide was then detected on a Caliper 3000 instrument essentially as described by Pommereau et al (J. Biomol. Screening 9(5), 409-416, 2004). Separation conditions were as follows: Pressure −1.3 psi, upstream voltage −1562 V, downstream voltage −500 V, sample sip time 200 ms. Positive controls (buffer 1 instead of compound) and negative controls (buffer 1 instead of compound and buffer 2 instead of ROCK II) were run in parallel on each plate.
The following products/compounds were tested in said assay by using the respective form (salt or free base) obtained as in the examples described above and the following activities were measured.

T1 sequence (O75116 11-552): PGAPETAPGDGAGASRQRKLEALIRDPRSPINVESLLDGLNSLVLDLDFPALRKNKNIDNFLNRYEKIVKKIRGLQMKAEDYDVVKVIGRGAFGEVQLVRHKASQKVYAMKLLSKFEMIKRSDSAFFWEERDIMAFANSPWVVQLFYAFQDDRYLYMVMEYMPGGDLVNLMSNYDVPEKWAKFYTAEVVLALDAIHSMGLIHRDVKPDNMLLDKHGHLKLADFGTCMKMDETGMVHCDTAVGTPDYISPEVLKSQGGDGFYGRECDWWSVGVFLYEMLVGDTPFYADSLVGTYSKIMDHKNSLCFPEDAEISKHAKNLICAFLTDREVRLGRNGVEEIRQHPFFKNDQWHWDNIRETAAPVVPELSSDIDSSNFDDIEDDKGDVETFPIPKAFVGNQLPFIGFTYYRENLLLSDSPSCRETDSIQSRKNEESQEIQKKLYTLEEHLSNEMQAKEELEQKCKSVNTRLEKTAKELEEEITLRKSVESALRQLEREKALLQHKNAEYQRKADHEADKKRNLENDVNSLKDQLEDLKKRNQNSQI

Row | Compound | IC50 [nM]
1 | O=C(NCc1ccccc1Cl)[C@@H]1C[C@@H](Oc2ccc3cnccc3c2)CCN1 [Compound 22, (2S,4S)-4-(Isoquinolin-6-yloxy)-piperidine-2-carboxylic acid 2-chloro-benzylamide] | ≤ 1000
2 | Cc1cc2c(=O)[nH]ccc2cc1O[C@H]1C[C@H]2CC[C@@H](C1)N2C [Compound 76, 7-Methyl-6-(8-methyl-8-aza-bicyclo[3.2.1]oct-3-yloxy)-2H-isoquinolin-1-one] | ≤ 1000
3 | O=C(NCCc1ccccc1)[C@@H]1C[C@H](Nc2ccc3cnccc3c2)CN1 [Compound 45, (2S,4S)-4-(Isoquinolin-6-ylamino)-pyrrolidine-2-carboxylic acid phenethyl-amide] | ≤ 1000
4 | O=C(NCc1ccco1)[C@@H]1C[C@H](Nc2ccc3cnccc3c2)CN1 [Compound 41, (2S,4S)-4-(Isoquinolin-6-ylamino)-pyrrolidine-2-carboxylic acid (furan-2-ylmethyl)-amide] | 1000 to 10000
5 | Cc1ccccc1NC(=O)[C@H]1CNC[C@@H]1Nc1ccc2cnccc2c1 [Compound 50, (3S,4R)-4-(Isoquinolin-6-ylamino)-pyrrolidine-3-carboxylic acid o-tolylamide] | ≤ 1000
6 | C#CCNC(=O)[C@@H]1C[C@@H](Oc2ccc3cnccc3c2)CN1 [Compound 31, (2S,4R)-4-(Isoquinolin-6-yloxy)-pyrrolidine-2-carboxylic acid prop-2-ynylamide] | ≤ 1000
7 | COCCNC(=O)[C@H]1CNC[C@@H]1Nc1ccc2cnccc2c1 [Compound 49, (3S,4R)-4-(Isoquinolin-6-ylamino)-pyrrolidine-3-carboxylic acid (2-methoxy-ethyl)-amide] | 1000 to 10000
8 | COc1cccc(CNC(=O)[C@H]2CNC[C@@H]2Nc2ccc3cnccc3c2)c1 [Compound 48, (3S,4R)-4-(Isoquinolin-6-ylamino)-pyrrolidine-3-carboxylic acid 3-methoxy-benzylamide] | ≤ 1000
9 | CN1[C@@H]2CC[C@H]1C[C@@H](Oc1cc3cc[nH]c(=O)c3cc1Cl)C2 [Compound 75, 7-Chloro-6-(8-methyl-8-aza-bicyclo[3.2.1]oct-3-yloxy)-2H-isoquinolin-1-one] | ≤ 1000
10 | O=C(NCCc1ccccc1)[C@@H]1C[C@@H](Oc2ccc3cnccc3c2)CCN1 [Compound 21, (2S,4S)-4-(Isoquinolin-6-yloxy)-piperidine-2-carboxylic acid phenethyl-amide] | 1000 to 10000
11 | O=c1[nH]ccc2cc(OC3(c4ccccc4)CCN(Cc4ccccc4)CC3)c(Cl)cc12 [Compound 69, 6-(1-Benzyl-4-phenyl-piperidin-4-yloxy)-7-chloro-2H-isoquinolin-1-one] | 1000 to 10000
12 | O=C(NCCO)[C@@H]1C[C@@H](Oc2ccc3cnccc3c2)CN1 [Compound 27, (2S,4R)-4-(Isoquinolin-6-yloxy)-pyrrolidine-2-carboxylic acid (2-hydroxy-ethyl)-amide] | 1000 to 10000

From US8772492B2, “Substituted isoquinoline and isoquinolinone derivatives” (Sanofi, priority 2006, dated 2014)
